Data on four compounds can be found in US8741347B2, “Method for forming cyclodextrin polymer and lipophilic compound emulsions, resulting emulsions, and compositions including said emulsions” (Centre National de la Recherche Scientifique—CNRS, priority 2009, dated 2014).

Series [1] in a line: Interfacial rheology, interfacial tension by the drop method (Tracker). The class given is physicochemical. As to the method: The interface (oil/aqueous solution of polymer) elastic behavior is measured from the variation in interfacial tension. The apparatus used for measuring the elastic properties is a Tracker®, manufactured by the company […] Concept. The interfacial tension is measured by the drop method. A deformation of the interfacial area by dilation or by contraction of the volume of the drop creates a variation in the interfacial concentration of the polymers adsorbed at the interface. The Tracker® records the response of the interfacial tension and subsequently establishes the relationship between the deformation of the interface and this response, which describes the rheological behavior of the interface. A deformation of the interfacial area is repeated over time by imposing a sinusoidal variation in the volume of the drop, and thus makes it possible to establish the viscoelastic characteristics of the interface. […] The drop is formed at the end of the capillary connected to a syringe, the plunger of which is controlled by a motor. The needle used has a 180° curve in order to have a rising drop, the density of the oils being in this case lower than that of the aqueous phase. The gauge of the needle is 18, which corresponds to an internal diameter of 0.84 mm and an external diameter of 1.27 mm. The needle is made of Teflon in order to avoid wetting of the drop on the walls of the needle. […]

A short description of series [2]: Emulsion formation and stability over time, optical microscopy observation on storage. The series is classed as physicochemical. As to conditions: cyclodextrin monomer 17 mg/ml in water + 10 mg Parsol MCX per ml, pulsed sonication 40 s, stored at 25° C. with tangential agitation. On the procedure:
The α-, β- or γ-cyclodextrin monomers are placed in solution in water at a concentration of 17 mg/ml. 10 mg of Parsol® MCX are added to 1 ml of the aqueous solution of α-, β- or γ-cyclodextrin thus prepared. The mixture is then subjected to pulsed sonication for 40 seconds in an ice-cold bath (0° C.). The resulting product is stored at 25° C. with tangential agitation.
The α-, β- or γ-cyclodextrin dimers/trimers are put into solution in water. 10 mg of Parsol® MCX are added to 1 ml of the aqueous solution of α-, β- or γ-cyclodextrin dimer/trimer thus prepared. The mixture is then subjected to pulsed sonication for 40 seconds in an ice-cold bath (0° C.). The resulting product is stored at 25° C. with tangential agitation.
The resulting emulsions are conditioned for storage at 25° C., with tangential agitation, at 37° C. or 4° C. for a varying period ranging from a few days up to a few months before use.
Emulsions (a) to (c) are formed by pulsed sonication for a period of 40 seconds and stored at 25° C.

`CC(C)=CCC/C(C)=C/CC/C(C)=C/CC/C=C(\C)CC/C=C(\C)CCC=C(C)C` [squalene]: the interfacial tension result in series [1] (oil drop in aqueous poly-β-CD solution) is recorded as “approximately 12 mN/m”.

As for `OC[C@H]1O[C@@H]2O[C@H]3[C@H](O)[C@@H](O)[C@@H](O[C@H]4[C@H](O)[C@@H](O)[C@@H](O[C@H]5[C@H](O)[C@@H](O)[C@@H](O[C@H]6[C@H](O)[C@@H](O)[C@@H](O[C@H]7[C@H](O)[C@@H](O)[C@@H](O[C@H]1[C@H](O)[C@H]2O)O[C@@H]7CO)O[C@@H]6CO)O[C@@H]5CO)O[C@@H]4CO)O[C@@H]3CO` [α-cyclodextrin monomers, α-cyclodextrin], the “outcome of attempt to prepare an emulsion” value (from here on “outcome of attempt”) in series [2] is “formation of an insoluble precipitate”; in series [2] (listed as α-monomers), “an insoluble precipitate is formed as early as the first day (day zero)”.

For the compound `OC[C@H]1O[C@@H]2O[C@H]3[C@H](O)[C@@H](O)[C@@H](O[C@H]4[C@H](O)[C@@H](O)[C@@H](O[C@H]5[C@H](O)[C@@H](O)[C@@H](O[C@H]6[C@H](O)[C@@H](O)[C@@H](O[C@H]7[C@H](O)[C@@H](O)[C@@H](O[C@H]8[C@H](O)[C@@H](O)[C@@H](O[C@H]9[C@H](O)[C@@H](O)[C@@H](O[C@H]1[C@H](O)[C@H]2O)O[C@@H]9CO)O[C@@H]8CO)O[C@@H]7CO)O[C@@H]6CO)O[C@@H]5CO)O[C@@H]4CO)O[C@@H]3CO` [γ-cyclodextrins, γ-cyclodextrin], the “outcome of attempt” value in series [2] is “formation of an emulsion (for two days) and then a precipitation”; in series [2] (listed as γ-monomer), “initially forms an emulsion and then precipitates rapidly (two days)”.

As to `OC[C@H]1O[C@@H]2O[C@H]3[C@H](O)[C@@H](O)[C@@H](O[C@H]4[C@H](O)[C@@H](O)[C@@H](O[C@H]5[C@H](O)[C@@H](O)[C@@H](O[C@H]6[C@H](O)[C@@H](O)[C@@H](O[C@H]7[C@H](O)[C@@H](O)[C@@H](O[C@H]8[C@H](O)[C@@H](O)[C@@H](O[C@H]1[C@H](O)[C@H]2O)O[C@@H]8CO)O[C@@H]7CO)O[C@@H]6CO)O[C@@H]5CO)O[C@@H]4CO)O[C@@H]3CO` [β-cyclodextrin monomers, β-cyclodextrin], the results for the “outcome of attempt” value in series [2] and in series [2] (listed as β-monomers) were “formation of an insoluble precipitate” and “an insoluble precipitate is formed as early as the first day (day zero)”, respectively. For the same compound, in series [1] (squalene (borage, ginger) drop in aqueous cyclodextrin solution), the “behaviour of the oil/aqueous solution interface” value is “formation of a rigid membrane at the surface of the squalene drop”.
